This note sets out measurements from patent US20040102423A1, “Spironolactone and angiotensin II antagonist combination therapy for treatment of congestive heart failure” (G.D. Searle & Co., priority 1995, published 2004).

Experiment [1] addresses angiotensin II AT1 receptor. Put plainly: Assay A: Angiotensin II binding activity, rat uterine membrane preparation, 125I-AII displacement.
For experiment [2], the system named is pressor response to AII. Nature of the experiment: Assay C: In vivo intragastric pressor assay response for AII antagonists. Set-up: species or system Sprague-Dawley rats. The following applies: in vivo pressor response; for inhibition in vivo at 30 mg/kg: read-out: Assay C Inhibition.
Experiment [3] has as its system rabbit aortic rings. Put plainly: Assay B: In vitro vascular smooth muscle response for AII (antagonist activity, pA2). It is filed as cell-based. Particulars: Oryctolagus cuniculus, two values in a cell = two determinations. The protocol: Assay B: In Vitro Vascular Smooth Muscle-Response for AII
The compounds of the invention were tested for antagonist activity in rabbit aortic rings. Male New Zealand white rabbits (2-2.5 kg) were sacrificed using an overdose of pentobarbital and exsanguinated via the carotid arteries. The thoracic aorta was removed, cleaned of adherent fat and connective tissue and then cut into 3-mm ring segments. The endothelium was removed from the rings by gently sliding a rolled-up piece of filter paper into the vessel lumen. The rings were then mounted in a water-jacketed tissue bath, maintained at 37° C., between moveable and fixed ends of a stainless steel wire with the moveable end attached to an FT03 Grass transducer coupled to a Model 7D Grass Polygraph for recording isometric force responses. The bath was filled with 20 ml of oxygenated (95% oxygen/5% carbon dioxide) Krebs solution of the following composition (mM): 130 NaCl, 15 NaHCO3, […], 1.2 NaH2PO4, 1.2 MgSO4, 2.5 CaCl2, and 11.4 glucose. The preparations were equilibrated for one hour before approximately one gram of passive tension was placed on the rings. Angiotensin II concentration-response curves were then recorded (3×10^−10 to 1×10^−5 M). Each concentration of AII was allowed to elicit its maximal contraction, and then AII was washed out repeatedly for 30 minutes before rechallenging with a higher concentration of AII. Aorta rings were exposed to the test antagonist at 10^−5 M for 5 minutes before challenging with AII. Adjacent segments of the same aorta ring were used for all concentration-response curves in the presence or absence of the test antagonist. The effectiveness of the test compound was expressed in terms of pA2 values and were calculated according to H. O. Schild [Br. J. Pharmacol. Chemother., 2, 189-206 (1947)]. The pA2 value is […] which increases the EC50 value for AII by a factor of two. Each test antagonist was evaluated in aorta rings from two rabbits.

Setting [4] is: Rattus norvegicus, po, 3 mg/kg intragastrically.
The mark [5] stands for this setting: Rattus norvegicus, intraduodenal, 30 mg/kg intraduodenally.

For `CCCCn1cc(CC(C)C)n(Cc2ccc(-c3ccccc3-c3nnn[nH]3)nc2)c1=O` [Compound 199], in experiment [1], the half-inhibitory concentration (IC50) (usually the concentration at which inhibition is half-maximal) stood at 10 nM. The compound further came in with an inhibition in vivo at 3 mg/kg in experiment [2] (setting [4]) of 60%. In experiment [2] (3 mg/kg intragastrically), the “Assay C Duration” value was more than 180 min. Further, the Kb – broadly, the equilibrium dissociation constant of an antagonist, usually derived from a functional assay – in experiment [3] is 1.62 nM.
On the same counts, the results for `CCCn1nc(C(OC)OC)nc1Cc1ccc(-c2ccccc2-c2nnn[nH]2)nc1` [Compound 185] are 6.5 nM, 50%, more than 180 min and 1.51 nM.
Regarding `CCCCc1nc(-c2ccccc2Cl)nn1Cc1ccc(-c2ccccc2-c2nnn[nH]2)nc1` [Compound 278], in experiment [1], the IC50 stood at 30 nM. This compound also displayed an inhibition in vivo at 3 mg/kg in experiment [2] (setting [4]) of 50%. Further, in experiment [2] (3 mg/kg intragastrically), the “Assay C Duration” value was more than 180 min. Besides, the Kb in experiment [3] was 3.24 nM.
Take `CCCCc1cn(C2CCCCC2(C)C)c(=O)n1Cc1ccc(-c2ccccc2-c2nnn[nH]2)nc1` (centres unmarked) [Compound 248]: the concentration for half-maximal inhibition (IC50) in experiment [1] is 20 nM. Further, the inhibition in vivo at 3 mg/kg in experiment [2] (setting [4]) is 10%. Besides, the Kb in experiment [3] was 20.9 nM.
In experiment [1], `CCCn1cc(CC(C)C)n(Cc2ccc(-c3ccccc3-c3nnn[nH]3)nc2)c1=O` [Compound 198] displayed a concentration for half-maximal inhibition (IC50) of 7.6 nM. In experiment [2] (setting [4]), this compound yielded an inhibition in vivo at 3 mg/kg of 35%. Moreover, in experiment [2] (3 mg/kg intragastrically), the “Assay C Duration” value is more than 180 min. Further, the Kb in experiment [3] was 1.74 nM.
In experiment [1], `CCCCCn1cc(CCCC)n(Cc2ccc(-c3ccccc3-c3nnn[nH]3)nc2)c1=O` [Compound 210] yielded a 50% inhibitory concentration (IC50) of 3.6 nM. For the same compound, the inhibition in vivo at 3 mg/kg in experiment [2] (setting [4]) came out at 15%. In addition, the “Assay C Duration” value in experiment [2] (3 mg/kg intragastrically) came to 180 min. The compound also gave an antagonist dissociation constant (Kb) in experiment [3] of 4.37 nM.
In experiment [1], `CCCCc1ncn(Cc2ccc(-c3ccccc3C(=O)O)cc2)n1` [Compound 30] registered an IC50 of 22 nM. The inhibition in vivo at 30 mg/kg in experiment [2] (setting [5]) amounted to 50%. The “Assay C Duration” value in experiment [2] (30 mg/kg intraduodenally) was more than 180 min. In addition, the Kb in experiment [3] was 18.6 nM.
For `CCCCc1cn(C2CCCCC2)c(=O)n1Cc1ccc(-c2ccccc2-c2nnn[nH]2)cc1` [Compound 147], the half-inhibitory concentration (IC50) in experiment [1] came to 5.8 nM. The inhibition in vivo at 3 mg/kg in experiment [2] (Rattus norvegicus, intraduodenal, 3 mg/kg intraduodenally) is 74%. Further, the “Assay C Duration” value in experiment [2] (3 mg/kg intraduodenally) is 5 to 10 min. This compound also showed a Kb in experiment [3] of 2510 nM.
`CCCCc1nc2cnncc2n1Cc1ccc(-c2ccccc2C(=O)O)cc1` [Compound 119] showed a concentration for half-maximal inhibition (IC50) in experiment [1] of 16 nM. Besides, the inhibition in vivo at 3 mg/kg in experiment [2] (setting [4]) was 20%. Further, the “Assay C Duration” value in experiment [2] (3 mg/kg intragastrically) came to 60 min. Moreover, the Kb in experiment [3] is 0.617 nM.
On the same counts, the results for `CCCn1nc(C(C)(F)F)nc1Cc1ccc(-c2ccccc2-c2nnn[nH]2)nc1` [Compound 176] are 9.8 nM, 10%, 150 min and 20.4 nM.
With `CCCCc1nc2c(CCC)nnc(O)c2n1Cc1ccc(-c2ccccc2-c2nnn[nH]2)cc1` [Compound 124], the inhibition in vivo at 3 mg/kg in experiment [2] (setting [4]) was found to be 45%. Further, the “Assay C Duration” value in experiment [2] (3 mg/kg intragastrically) is more than 180 min. In addition, in experiment [3], the Kb is 0.38 nM.
In experiment [1], `CCCCc1cn(CCC(C)C)c(=O)n1Cc1ccc(-c2ccccc2-c2nnn[nH]2)nc1` [Compound 209] yielded an IC50 of 5 nM. Moreover, the inhibition in vivo at 3 mg/kg in experiment [2] (setting [4]) was determined as 25%. For the same compound, the “Assay C Duration” value in experiment [2] (3 mg/kg intragastrically) was more than 180 min. The antagonist equilibrium constant (Kb) in experiment [3] was 0.389 nM.
`CCCCc1nn(CC(O)c2cc(OC)ccc2OC)c(=O)n1Cc1ccc(-c2ccccc2-c2nn[nH]n2)cc1` (centres unmarked) [Compound 109]: the IC50 in experiment [1] stood at 250 nM. Also, the inhibition in vivo at 30 mg/kg in experiment [2] (setting [5]) came to 50%. Further, in experiment [2] (30 mg/kg intraduodenally), the “Assay C Duration” value was 30 min. The compound further had an antagonist equilibrium constant (Kb) in experiment [3] of 50.1 nM.
As to `CCCCc1nc2c(O)nnc(O)c2n1Cc1ccc(-c2ccccc2C(=O)O)cc1` [Compound 120], the IC50 in experiment [1] came to 25 nM. In experiment [2] (Rattus norvegicus, po, 10 mg/kg intragastrically), the inhibition in vivo at 10 mg/kg is 80%. The “Assay C Duration” value in experiment [2] (10 mg/kg intragastrically) was found to be 240 min. Also, the Kb in experiment [3] is 0.891 nM.
With `CCCCc1nc(Cl)c(Cl)n1Cc1ccc(-n2cccc2C(=O)O)cc1` [Compound 158], the IC50 in experiment [1] amounted to 54 nM. In experiment [2] (setting [4]), this compound came in with an inhibition in vivo at 3 mg/kg of 30%. In experiment [2] (3 mg/kg intragastrically), the “Assay C Duration” value was more than 180 min. This compound showed an antagonist equilibrium constant (Kb) in experiment [3] of 5.89 nM.
In experiment [1], `CCCCc1nc(Cc2ccc(-c3ccccc3-c3nnn[nH]3)nc2)n(CC(CC)CC)n1` [Compound 168] came in with an IC50 of 420 nM. Besides, the Kb in experiment [3] was 20.4 nM.
As to `CCCCc1nn(CC(=O)OC(C)(C)C)c(=O)n1Cc1ccc(-c2ccccc2-c2nn[nH]n2)cc1` [Compound 95], in experiment [1], the IC50 is 66 nM. In experiment [3], this compound gave a Kb of 6.31 nM.
The matching figures for `CCCCc1nn(CCC(C)CC(C)(C)C)c(=O)n1Cc1ccc(-c2ccccc2-c2nn[nH]n2)cc1` (centres unmarked) [Compound 103]: 12 nM and 10 nM.
For the compound `CCCCCn1nc(CCCC)n(Cc2ccc(-c3ccccc3-c3nn[nH]n3)cc2)c1=O` [Compound 101], the IC50 in experiment [1] was 36 nM. The same compound gave a Kb in experiment [3] of 15.8 nM.
The matching figures for `CCCCc1nc(CCC(=O)O)nn1Cc1ccc(-c2ccccc2-c2nnn[nH]2)cc1` [Compound 74]: 6.5 nM and 2.75 nM.
On the same counts, the results for `CCCCc1nc(CC23CC4CC(CC(C4)C2)C3)n(Cc2ccc(-c3ccccc3-c3nnn[nH]3)cc2)n1` [Compound 72] are 83 nM and 776 nM.
The matching figures for `CCCCc1nc(-c2c(F)cccc2F)nn1Cc1ccc(-c2ccccc2-c2nnn[nH]2)nc1` [Compound 280]: 480 nM and 389 nM.
For the compound `CCCCCc1nc(Cc2ccc(-c3ccccc3-c3nnn[nH]3)nc2)n(CCCC)n1` [Compound 167], in experiment [1], the half-maximal inhibitory concentration (IC50) amounted to 370 nM. In addition, the antagonist equilibrium constant (Kb) in experiment [3] is 83.2 nM.
The matching figures for `CCCCc1nc(-c2ccccc2OC)n(Cc2ccc(-c3ccccc3-c3nnn[nH]3)nc2)n1` [Compound 277]: 190 nM and 288 nM.
On the same counts, the results for `CCCCc1cn(CCCC)c(=O)n1Cc1ccc(-c2ncccc2-c2nnn[nH]2)cc1` [Compound 235] are 34 nM and 72.4 nM.
The compound `CCCCc1nc(CCC2CCCCC2)n(Cc2ccc(-c3ccccc3-c3nnn[nH]3)cc2)n1` [Compound 53] came in with a half-maximal inhibitory concentration (IC50) in experiment [1] of 65 nM. The compound also had a Kb in experiment [3] of 27.5 nM.
On the same counts, the results for `CCCCn1nc(C(F)(F)CC)nc1Cc1ccc(-c2ccccc2-c2nnn[nH]2)nc1` [Compound 179] are 310 nM and 214 nM.
For the compound `CCCCc1nn(CC(=O)OCC)c(=O)n1Cc1ccc(-c2ccccc2-c2nn[nH]n2)cc1` [Compound 97], in experiment [1], the 50% inhibitory concentration (IC50) turned out to be 280 nM. In experiment [3], this compound gave a Kb of 20 nM.
`CCCCn1nc(C(F)F)nc1Cc1ccc(-c2ccccc2-c2nnn[nH]2)nc1` [Compound 174]: in experiment [1], the half-maximal inhibitory concentration (IC50) stood at 180 nM. Further, the antagonist dissociation constant (Kb) in experiment [3] is 51.3 nM.
Take `CCCCc1nc(CC)nn1Cc1ccc(-c2ccccc2C(=O)O)cc1` [Compound 86]: the IC50 in experiment [1] is 9 nM. In addition, the Kb in experiment [3] was 15.8 nM.
On the same counts, the results for `CCCCc1cn(CCCC)c(=O)n1Cc1ccc(-c2ccccc2-c2nnn[nH]2)cc1` [Compound 143] are 0.052 nM and 20 nM.
`CCCCc1nc(CC)nn1Cc1ccc(-c2ccccc2-c2nnn[nH]2)cc1` [Compound 50] gave an IC50 in experiment [1] of 54 nM. Also, the antagonist equilibrium constant (Kb) in experiment [3] is 19.5 nM.
In turn, `CCCCc1nc(CCC)nn1Cc1ccc(-c2ccccc2-c2nnn[nH]2)cc1` [Compound 25] returned an IC50 in experiment [1] of 480 nM. Also, the Kb in experiment [3] was 158 nM.
In turn, `CCCCc1cn(-c2c(C)cccc2C)c(=O)n1Cc1ccc(-c2ccccc2-c2nnn[nH]2)nc1` [Compound 233] came in with an IC50 in experiment [1] of 84 nM. This compound also showed an antagonist dissociation constant (Kb) in experiment [3] of 3.09 nM.
For the compound `CCCCn1nc(C(F)(F)CCC)nc1Cc1ccc(-c2ccccc2-c2nnn[nH]2)cc1` [Compound 141], the IC50 in experiment [1] came out at 0.11 nM. Also, in experiment [3], the antagonist dissociation constant (Kb) is 9.55 nM.
In turn, `CCCCc1nc(CCC2CCCCC2)nn1Cc1ccc(-c2ccccc2-c2nnn[nH]2)cc1` [Compound 54] gave a 50% inhibitory concentration (IC50) in experiment [1] of 3100 nM. The antagonist dissociation constant (Kb) in experiment [3] was 955 nM.
The matching figures for `CCCCCn1nc(CCCC)nc1Cc1ccc(-c2ccccc2-c2nnn[nH]2)nc1` [Compound 166]: 160 nM and 26.9 nM.
`CCCCc1nn(/C(Cc2ccccc2)=C(/OCc2ccccc2)c2ccccc2)c(=O)n1Cc1ccc(-c2ccccc2-c2nn[nH]n2)cc1` [Compound 104]: the IC50 in experiment [1] came out at 15 nM. Further, the Kb in experiment [3] is 10 nM.
